According to US20190269784A1, “Selective Inhibitors of the Polo-Like Kinase 1 Polo-Box Domain” (UNIVERSITY OF SOUTH CAROLINA, priority 2018, published 2019):
Values joined by “and” are separate entries in the source; they are usually repeats but may differ in a detail not shown here. Equal values may be shown once. Read-outs that look alike come from different tables or passages of the source. One block for each molecule: values may come before it. Square brackets hold non-standard residues; d marks the D form. Ends that are not written are not given here. Peptide text beside a SMILES is read from it. * marks the point of attachment. Benzoyl(4-octyl) = CCCCCCCCc1ccc(C(=O)*)cc1; pT = C[C@@H](OP(=O)(O)O)[C@H](N)C(=O)O; X2 = O=C(c1ccc(OCc2ccc(F)cc2)cc1)*; Benzoyl(4-OH) = O=C(c1ccc(O)cc1)*

Assays:
PLK1 PBD = PLK1 PBD (Homo sapiens, UniProt P53350); assay: Fluorescence polarization competitive binding assay, PLK1 PBD; settings: for Selectivity Index: (IC50 PLK3 PBD/IC50 PLK1 PBD)×5, PLK1 over PLK3
Protocol: (§1) According to the assay, binding of a fluorescent tracer peptide to a protein increased polarization of the emitted fluorescence. […] The ability of test molecules to bind to the PBD was quantitated by a reduction in mP values that occurred as the tracer was displaced from the PBD, and plotted to calculate as an IC50 value.
(§2) The affinities of the peptides for PLK1 and PLK3 were measured by plotting the loss of polarization against increasing concentration of competitor peptide through use of an optimized assay and selectivity determination.

PLK3 PBD = target: T1, PLK3 PBD (Homo sapiens, UniProt Q9H4B4); assay: Fluorescence polarization competitive binding assay, PLK3 PBD; settings: for PLK3 PBD binding, in words: FP assay
T1 construct: A similar assay format was developed for the PLK3 PBD
T1 sequence (Q9H4B4 335-646 limits assumed): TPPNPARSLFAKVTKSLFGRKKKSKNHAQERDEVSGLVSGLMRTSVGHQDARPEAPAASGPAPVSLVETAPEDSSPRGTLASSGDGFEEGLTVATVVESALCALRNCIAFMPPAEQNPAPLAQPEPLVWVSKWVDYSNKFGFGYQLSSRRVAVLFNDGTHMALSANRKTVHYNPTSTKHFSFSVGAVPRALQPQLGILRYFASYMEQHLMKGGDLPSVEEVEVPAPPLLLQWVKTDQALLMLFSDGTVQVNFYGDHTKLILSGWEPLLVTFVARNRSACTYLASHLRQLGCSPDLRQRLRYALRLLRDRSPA
Protocol: The binding of fluorescein-labelled tracer peptides used for both assays was determined to see if there was a difference in affinity for their respective PBD. A titration curve for each tracer/PLK PBD complex was generated to determine Kd values for each and therefore compare the relative binding affinities.
as §2

[1] = target: polo-box domain (PBD) of polo-like kinase 1 (PLK1) (UniProt P53350); assay: from FP IC50s, (IC50 PLK3 PBD/IC50 PLK1 PBD)x5; PLK1 PBD against PLK3 PBD
[2] = target: polo-box domain (PBD) of polo-like kinase 1 (PLK1) (UniProt P53350); assay: fluorescence polarization competition on PLK1 PBD
[3] = target: polo-box domain (PBD) of polo-like kinase 1 (PLK1) (UniProt P53350); assay: fluorescence polarization competition, displacement of tracer peptide from PLK1 PBD
[4] = target: polo-box domain (PBD) of polo-like kinase 1 (PLK1) (UniProt P53350); assay: from FP IC50s; PLK1 PBD against PLK3 PBD
[5] = target: T2, polo-box domain (PBD) of polo-like kinase 1 (PLK1) (UniProt P53350 367-603, limits assumed); assay: fluorescence polarization competition, displacement of tracer peptide from PLK1 PBD
T2 construct: domain: polo-box domain (PBD); the background speaks of the four known human PLKs and the residue numbers (L491) fit human PLK1; also called PLK1 PBD; PBD of PLK1
Description: as §1, with “IC₅₀” for “IC50”

[6] = PLK3 PBD FP IC50, competition with fluorescent tracer peptide
[7] = competition with fluorescent tracer peptide, read-out: PLK3 PBD FP IC50
[8] = competition with fluorescent tracer peptide, read-out: PLK1 PBD FP IC50

Sequence of PLK1 PBD (P53350 367-603 limits assumed): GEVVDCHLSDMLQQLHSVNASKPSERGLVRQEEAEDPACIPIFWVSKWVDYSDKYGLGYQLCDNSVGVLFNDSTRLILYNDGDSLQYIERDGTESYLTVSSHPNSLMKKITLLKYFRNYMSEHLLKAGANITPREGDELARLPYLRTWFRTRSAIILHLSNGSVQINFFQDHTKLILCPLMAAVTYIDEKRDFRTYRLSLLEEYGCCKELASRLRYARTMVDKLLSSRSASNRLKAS
T2 sequence (P53350 367-603 limits assumed): as above
Sequence of polo-box domain (PBD) of polo-like kinase 1 (PLK1) (UniProt P53350) (P53350 367-603 limits assumed): as above

Molecule: CC(C)C[C@H](NC(=O)CNC(=O)[C@H](CC(N)=O)NC(=O)[C@@H]1CCCN1C(=O)[C@@H](NC(=O)[C@H](CO)NC(=O)[C@@H](NC(=O)[C@H](C)NC(=O)[C@H](CC(C)C)NC(=O)[C@@H]1CCCN1C(=O)CN)[C@@H](C)O)[C@@H](C)OP(=O)(O)O)C(=O)O [SEQ ID NO: 8, GPLATS[pT]PNGL] (H-GPLATS[pT]PNGL-OH; N-terminus and C-terminus assumed)
IC50 (PLK1 PBD): 0.011 µM | fold reduction of PLK1 PBD binding relative to parent compound (PLK1 PBD): 2 fold | Selectivity Index (PLK1 PBD): 2864 | fold reduction of PLK3 PBD binding relative to parent compound (PLK3 PBD): 3 fold | IC50 (PLK3 PBD; [6]): 6.3 µM

Molecule: GPLATS[pT]PKNG (SEQ ID NO: 7)
Selectivity Index [1]: 1930

Molecule: CC[C@H](C)[C@H](NC(=O)[C@H](C)NC(=O)[C@@H](NC(=O)[C@H](CO)NC(=O)[C@H](Cc1c[nH]cn1)NC(=O)[C@H](CC(C)C)NC(C)=O)[C@@H](C)OP(=O)(O)O)C(=O)O [SEQ ID NO: 5, Ac-LHS[pT]Al] (Ac-LHS[pT]AI-OH; C-terminus assumed)
IC50 (PLK1 PBD): 1.57 µM | Selectivity Index (PLK1 PBD): >1900 | PLK3 PBD binding, in words (PLK3 PBD): lost all detectable affinity | IC50 (PLK3 PBD; [6]): > 600 µM

Molecule: 4-butyl benzamide FLIP, 4-butyl S[pT]PNGL (SEQ ID NO: 11) (peptide)
fold potency increase against Compound #9 [2]: 2 fold | IC50 [3]: 2.5 µM | Selectivity Index [4]: > 1200

Molecule: Compound No. 13, 4-octyl S[pT]PNGL (SEQ ID NO: 11) (peptide)
IC50 [3]: 0.36 µM | Selectivity Index [4]: 2070

Molecule: CC(C)C[C@H](NC(=O)CNC(=O)[C@H](CC(N)=O)NC(=O)[C@@H]1CCCN1C(=O)[C@@H](NC(=O)[C@H](CO)NC(=O)[C@H](CS)NC(=O)[C@H](CC(C)C)NC(=O)[C@@H](N)CC(C)C)[C@@H](C)OP(=O)(O)O)C(=O)O [SEQ ID NO: 1, LLCS[pT]PNGL, reference compound] (H-LLCS[pT]PNGL-OH; N-terminus and C-terminus assumed)
PLK3 PBD binding, in words (PLK3 PBD): no PLK3 PBD binding apparent at the maximum concentration tested

Molecule: CCCCCCCCc1ccc(C(=O)N[C@@H](CO)C(=O)N[C@H](C(=O)N[C@@H](C)C(=O)O)[C@@H](C)OP(=O)(O)O)cc1 [Compound 14]
fold reduction of PLK1 PBD binding relative to parent compound (PLK1 PBD): ~40 fold | Selectivity Index (PLK1 PBD): 66 | IC50 (PLK3 PBD; [7]): 202 ± 51.3 µM

Molecule: CCCCCCCCc1ccc(C(=O)N[C@@H](CO)C(=O)N[C@H](C(=O)N2CCC[C@H]2C(=O)N[C@@H](CC(N)=O)C(=O)NCC(=O)N[C@@H](CC(C)C)C(=O)O)[C@@H](C)OP(=O)(O)O)cc1 [Compound 13] ({Benzoyl(4-octyl)}-S[pT]PNGL-OH; C-terminus assumed)
IC50 (PLK3 PBD; [6]): 149 ± 38.2 µM

Molecule: CC(C)C[C@H](NC(=O)[C@@H]1CCCN1C(=O)CN)C(=O)N[C@@H](C)C(=O)N[C@H](C(=O)N[C@@H](CO)C(=O)N[C@H](C(=O)N1CCC[C@H]1C(=O)N[C@@H](CCCCN)C(=O)N[C@@H](CC(N)=O)C(=O)NCC(=O)O)[C@@H](C)OP(=O)(O)O)[C@@H](C)O [SEQ ID NO: 7, GPLATS[pT]PKNG, reference compound] (H-GPLATS[pT]PKNG-OH; N-terminus and C-terminus assumed)
IC50 (PLK1 PBD): 0.0057 µM | Selectivity Index (PLK1 PBD): ~2000 and 1928 | IC50 (PLK3 PBD; [6]): 2.2 µM

Molecule: CC(=O)N1CCC[C@H]1C(=O)N[C@@H](CC(C)C)C(=O)N[C@@H](Cc1c[nH]cn1)C(=O)N[C@@H](CO)C(=O)N[C@H](C(=O)N1CCC[C@H]1C(=O)N[C@@H](CCCCN)C(=O)N[C@@H](CC(N)=O)C(=O)NCC(=O)O)[C@@H](C)OP(=O)(O)O [SEQ ID NO: 9, Ac-PLHS[pT]PKNG] (Ac-PLHS[pT]PKNG-OH; C-terminus assumed)
Selectivity Index (PLK1 PBD): 20,906 | IC50 (PLK1 PBD; [8]): 0.032 µM | IC50 (PLK3 PBD; [7]): 134 µM

Molecule: CC[C@H](C)[C@H](NC(=O)[C@H](C)NC(=O)[C@@H](NC(=O)[C@H](CO)NC(=O)[C@H](Cc1c[nH]cn1)NC(=O)[C@H](CC(C)C)NC(=O)[C@@H]1CCCN1C(C)=O)[C@@H](C)OP(=O)(O)O)C(=O)O [SEQ ID NO: 4, Ac-PLHS[pT]Al] (Ac-PLHS[pT]AI-OH; C-terminus assumed)
Selectivity Index (PLK1 PBD): 21,133 | IC50 (PLK1 PBD; [8]): 0.064 µM | IC50 (PLK3 PBD; [7]): 270 µM

Molecule: CC(C)C[C@H](NC(=O)CNC(=O)[C@H](CC(N)=O)NC(=O)[C@@H]1CCCN1C(=O)[C@@H](NC(=O)[C@H](CO)NC(=O)c1ccc(OCc2ccc(F)cc2)cc1)[C@@H](C)OP(=O)(O)O)C(=O)O [Compound 5] (X2-S[pT]PNGL-OH; C-terminus assumed)
IC50 (PLK1 PBD): 5 µM | fold reduction of PLK1 PBD binding relative to parent compound (PLK1 PBD): ~24 fold

Molecule: CC(C)C[C@H](NC(=O)CNC(=O)[C@H](CC(N)=O)NC(=O)[C@@H]1CCCN1C(=O)[C@@H](NC(=O)[C@H](CO)NC(=O)[C@H](CS)NC(=O)[C@H](CC(C)C)NC(=O)[C@@H](N)CC(C)C)[C@@H](C)O)C(=O)O [SEQ ID NO: 2, reference compound] (H-LLCSTPNGL-OH)
IC50 (PLK1 PBD): > 600 µM

Molecule: CC(=O)N1CCC[C@H]1C(=O)N[C@@H](CC(C)C)C(=O)N[C@@H](Cc1c[nH]cn1)C(=O)N[C@@H](CO)C(=O)N[C@H](C(=O)N1CCC[C@H]1C(=O)N[C@@H](CC(N)=O)C(=O)NCC(=O)N[C@@H](CC(C)C)C(=O)O)[C@@H](C)OP(=O)(O)O [SEQ ID NO: 3, Ac-PLHS[pT]PNGL] (Ac-PLHS[pT]PNGL-OH; C-terminus assumed)
Selectivity Index (PLK1 PBD): 13,633 | IC50 (PLK1 PBD; [8]): 0.06 µM | IC50 (PLK3 PBD; [7]): 164 µM

Molecule: CC(C)C[C@H](NC(=O)CNC(=O)[C@H](CC(N)=O)NC(=O)[C@@H]1CCCN1C(=O)[C@@H](NC(=O)[C@H](CO)NC(=O)c1ccc(O)cc1)[C@@H](C)OP(=O)(O)O)C(=O)O [Compound 1] ({Benzoyl(4-OH)}-S[pT]PNGL-OH)
PLK1 PBD binding, in words (PLK1 PBD; FP assay): completely inactive

Second part, the molecule after the results:

Selectivity Index [1]: > 6500 | fold reduction in binding against SEQ ID NO: 4 [2]: 7 fold | IC50 [3]: 0.46 µM
Molecule: Ac-PLHS[pT]A (SEQ ID NO: 6)

Selectivity Index [1]: 20900 | fold weakened affinity against SEQ ID NO: 8 [2]: 2 fold
Molecule: Ac-PLHS[pT]PKNG (SEQ ID NO: 9)

Selectivity Index [1]: 21100
Molecule: Ac-PLHS[pT]AI (SEQ ID NO: 4)

IC50 [3]: 1 µM | Selectivity Index [4]: > 2830
Molecule: Compound No. 12, 4-hexyl S[pT]PNGL (SEQ ID NO: 11) (peptide)

fold weaker affinity against Compound No. 15 [2]: 40 fold | IC50 [3]: 15.2 µM | Selectivity Index [4]: 66
Molecule: Compound No. 14, 4-octyl S[pT]A (SEQ ID NO: 12) (peptide)

Selectivity Index [1]: 13600 | fold increase against SEQ ID NO: 1 [2]: 3 fold
Molecule: Ac-PLHS[pT]PNGL (SEQ ID NO: 3)

IC50 [5]: 21.9 µM
Molecule: {4‑methoxybenzoyl}-S[pT]PNGL (also: further groups not given here, see m14; also called Compound No. 2) [Compound #2, methoxy derivative FLIP (R1 = OCH3)]

IC50 [5]: 4.5 µM
Molecule: {4‑phenethoxybenzoyl}-S[pT]PNGL (also: further groups not given here, see m14; also called Compound No. 6) [Compound #6, 4-phenethoxy FLIP (R1 = OCH2CH2C6H5)]

Selectivity Index [1]: > 1900 | fold loss of binding against SEQ ID NO: 4 [2]: 24 fold
Molecule: Ac-LHS[pT]AI [Ac-LHS[pT]AI (SEQ ID NO: 5)]

IC50 [5]: 15.9 µM
Molecule: {4‑ethoxybenzoyl}-S[pT]PNGL (also: further groups not given here, see m14; also called Compound No. 3) [Compound #3 FLIP (R1 = OCH2CH3)]

IC50 [5]: 3 µM
Molecule: {4‑(methylthio)benzoyl}-S[pT]PNGL (also: further groups not given here, see m14; also called Compound No. 7) [Compound #7, thiomethyl FLIP (R1 = SCH3)]
